Source: US11352358B2, “FXR agonist” (XUANZHU BIOPHARMACEUTICAL CO., LTD., priority 2017, dated 2022)

Legend:
SHP mRNA in AML12 cells = assay: Relative expression of SHP mRNA in AML12 cells, EC50 (Experimental Example 4); type: cell-based; details: Mus musculus, 24 hrs
Method: (§1) compounds of the present invention (for their chemical names and preparation methods, see the preparation example for each compound).
AML12 cells: mouse liver cells.
(§2) Control: compound 1-1B with a structure shown as follows, prepared according to a prior art method (for detailed information, see patent application WO2012087519A1).
(§3) Cells were digested with pancreatin and collected, and the concentration of the cells was determined; according to the counting result, the cells were resuspended to a density of 7.5×10^4 cells/mL; 1 mL of the cell suspension was inoculated in each well of a 12-well cell culture plate; and the culture plate was placed in an incubator and cultured under the conditions of 37° C. and 5% CO2 for 24 hrs.
The compound were diluted to 1000, 200, 8, 1.6, 0.32, 0.128, 0.0256 and 0.00512 μM with DMSO. Compound solutions of different concentrations obtained in the previous step were further diluted by 1000 times with media to obtain working solutions, and a medium containing 0.1% of DMSO was adopted as a control group. The cell culture plate was taken out from the incubator, the medium was removed, and the working solutions and the control medium were added. The culture plate was placed back into the incubator and cultured under the conditions of 37° C. and 5% CO2 for 24 hrs.
after treatment for 24 hrs, the cell culture plate was taken out from the incubator, and the medium was removed from the plate; the cells were rinsed three times with pre-cooled (4° C.) PBS (phosphate buffer solution); and 200 μL of pancreatin (preheated to 37° C.) was added to each well, and the plate was then gently shaken such that the pancreatin could evenly cover the plate bottom. The culture plate was then placed back into the incubator and incubated until the cells were separated from the plate bottom. 1 mL of medium was added to terminate digestion. […]

SHP mRNA in HepG2 cells = assay: Relative expression of SHP mRNA in HepG2 cells, EC50 (Experimental Example 3); type: cell-based; details: Homo sapiens, 24 hrs
Method: as §1
(§4) HepG2 cell: human liver cancer cell;
SHP: small heterodimer partner;
as §2
as §3, with “7.5×10^5” for “7.5×10^4”, “2” for “1”, “6-well” for “12-well”
(§5) The compounds were diluted to 3000, 1000, 200, 8, 1.6, 0.32, 0.0128, 0.00256 and 0.000512 μM with DMSO. Compound solutions of different concentrations obtained in the previous step were further diluted by 1,000 times with media to obtain working solutions, and a medium containing 0.1% of DMSO was adopted as a control group. The cell culture plate was taken out from the incubator, the medium was removed, and the working solutions and the control medium were added. The culture plate was placed back into the incubator and cultured under the conditions of 37° C. and 5% CO2 for 24 hrs. […]

[1] = Liver microsome metabolism stability, human liver microsome; type: in vitro ADME; details: 0.5 mg protein/mL, test sample 1 μM, β-NADPH
Method: (§6) Test samples: the homemade compounds 1, 2, 4 and 5 of the present invention (for their chemical names and preparation methods, see the preparation example for each compound).
(§7) a mixed liver microsomes of SD rat and human both purchased from XenoTech, with batch Nos.: 1410271 (SD rat) and 1410013 (human) respectively, wherein the microsomal protein concentrations both were 20 mg mL^−1;
(§8) experimental promoter β-NADPH purchased from Roche (batch No.: 524F0231); and a phosphate buffer solution (pH 7.4) made in the lab.
(§9) An appropriate amount of the test sample powder was weighed accurately, and dissolved in an appropriate amount of dimethyl sulfoxide (DMSO) to a concentration of 1 mM; and the solution was then diluted by 20 times with methanol to yield a 50 μM working solution.
(§10) (1) According to the proportions in table 3 “Composition of the incubation system for liver microsome metabolism stability experiment” above, for each compound, 6 mL of PBS (100 mM), 0.6 mL of MgCl2 solution (20 mM) and 3.66 mL of H2O were made into a mixed solution 1 for the incubation system (not containing the microsomes, the test sample and β-NADPH).
(§11) (2) Liver microsomes (20 mg protein/mL) were taken from a refrigerator (−80° C.), and were placed on a thermostatic water bath oscillator (37° C.) and pre-incubated for 3 mins.
(§12) (3) For each compound, 1.88 mL of the mixed solution 1 for the incubation system was added with 55 μL of microsomes to obtain a mixed solution 2 for the incubation system (not containing the test sample and β-NADPH).
(§13) (4) Sample group (containing the microsomes and D-NADPH): 616 μL of mixed solution 2 for the incubation system was added with 14 μL of the test sample working solution (with a concentration of 50 μM), and with 70 μL of R-NADPH working solution (10 mM). The resulted solution was well mixed, and the resulted solution was then duplicated. The time points of sampling were at 0 min, 5th min, 10th min, 20th min, 30th min and 60th min.
(§14) (5) Control group (containing the microsomes, and water instead of D-NADPH): 264 μL of mixed solution 2 for the incubation system was added with 6 μL of the test sample working solution (50 μM), and with 30 μL of water. The resulted solution was well mixed, and the resulted solution was then duplicated. The time points of sampling were at 0 min and 60th min.
(§15) (6) 50 μL of sample was taken from an incubating sample tube at each predetermined time point, added to a terminating sample tube (containing 300 μL of cold terminator), and vortexed; and the reaction was terminated.
(§16) (7) after 10 mins of vortexing, the solution was centrifuged for 5 mins (12,000 rpm).
(§17) (8) 100 μL of supernatant was taken and added with 100 μL of water, and the mixture solution was thoroughly vortexed; and the solution was then analyzed by LC-MS/MS.
(§18) Percentages of residual contents were calculated according to the following formula.

BSEP mRNA in HepG2 cells = assay: Relative expression of BSEP mRNA in HepG2 cells, EC50 (Experimental Example 3); type: cell-based; details: Homo sapiens, 24 hrs
Method: as §1, §4
BSEP: bile salt export pump;
as §2
as §3, with “7.5×10^5” for “7.5×10^4”, “2” for “1”, “6-well” for “12-well”
as §5

[2] = system: CYP7A1 mRNA in HepG2 cells; assay: Relative expression of CYP7A1 mRNA in HepG2 cells, IC50 (Experimental Example 3); type: cell-based; details: Homo sapiens, 24 hrs
Method: as §1, §4
CYP7A1: cholesterol 7-alpha hydroxylase;
as §2
as §3, with “7.5×10^5” for “7.5×10^4”, “2” for “1”, “6-well” for “12-well”
as §5

[3] = Liver microsome metabolism stability, rat liver microsome; type: in vitro ADME, SD rat; details: 0.5 mg protein/mL, test sample 1 μM, β-NADPH
Method: as §6, §7, §8, §9, §10, §11, §12, §13, §14, §15, §16, §17, §18

SMILES: O=C(O)c1cc(F)c2nc(N3C[C@@H]4C[C@H]3C[C@H]4OCc3c(-c4ccccc4OC(F)(F)F)noc3C3CC3)sc2c1 [Compound 8, 2-((1S, 4S, 5R)-5-((5-cyclopropyl-3-(2-(trifluoromethoxy)phenyl)isoxazol-4-yl)methoxy)-2-azabicyclo[2.2.1]heptan-2-yl)-4-fluorobenzo[d]thiazole-6-formic acid]
- EC50 (SHP mRNA in AML12 cells): 0.89 nM
- EC50 (SHP mRNA in HepG2 cells): 0.09 nM
- Residual content (%) after 60 minutes of incubation [1]: 96%
- EC50 (BSEP mRNA in HepG2 cells): 0.35 nM
- IC50 [2]: 0.02 nM
- Residual content (%) after 60 minutes of incubation [3]: 73%
